In brackets after ≈: the same amount, converted by molar mass.
How the values were obtained:
Phoma herbarum = assay: Biocide Testing Procedure (malt extract broth); type: cell-based; conditions: 168 h, one week, read-out: lowest concentration which provides 50% inhibition of growth
Description: Biocide Testing Procedure Tubes of sterilized nutrient and malt extract broth are prepared. Aliquots of the toxicant, dissolved in an appropriate solvent, are injected through the stopper, into the broth, to provide concentrations ranging from 50 ppm downward. The test organism is a fungus, Phoma herbarum. Three drops of a spore suspension of the fungus are injected into the tubes of malt broth. One week later the growth of the organism is observed and effectiveness of the chemical is recorded as the lowest concentration in ppm which provides 50% inhibition of growth as compared to untreated inoculated tube.

Aspergillus fumigatus = assay: In Vitro Agar Screening Tests (Example 4); type: cell-based; conditions: potato dextrose agar, 30° C, read-out: Minimum Inhibitory Concentration
Description: (§1) This test measures the bactericidal, fungicidal and algaecidal properties of a compound when in contact with growing bacteria, fungi or algae in an artificial medium. The test is conducted by adding 20 ml. portions of a suitable warm sterile agar solution into 20 × 100 Petri dishes. Then, the text compound, in 0.5% acetone solution, is added to the Petri dishes at levels of 1, 5, 10 and 50 μg/ml. and mixed with the warm mobile agar solution. The treated agar mixture is then allowed to come to room temperature and solidify. Cells of the chosen organism are streaked on the surface of the solidified agar and are then incubated for such lengths of time that untreated samples containing no toxicant show luxurious growth typical of the particular organism. This time varies from 24 hours to one week depending on the particular organism. The fungi are incubated at 30° C and the bacteria are incubated at 37° C. The algae are incubated at room temperature under artificial light. Nutrient agar is used as the medium in this test for the bacteria. Potato dextrose agar is used as the medium for the fungi with the exception of Trichophyton mentagrophytes for which Emmons agar is used. A modified Jack Meyers agar is used for the growth of the algae.
(§2) The extent of growth is noted at the end of the incubation period.

Aspergillus niger = assay: In Vitro Agar Screening Tests (Example 4); type: cell-based; conditions: potato dextrose agar, 30° C, read-out: Minimum Inhibitory Concentration
Description: as §1, §2

Aspergillus oryzae = assay: In Vitro Agar Screening Tests (Example 4); type: cell-based; conditions: potato dextrose agar, 30° C, partial control at this concentration, read-out: Minimum Inhibitory Concentration
Description: as §1, §2

Bacillus cereus = assay: In Vitro Agar Screening Tests (Example 4); type: cell-based; conditions: nutrient agar, 37° C, read-out: Minimum Inhibitory Concentration
Description: as §1, §2

[1] = tested on: Brevibacterium ammoniagenes; assay: In Vitro Agar Screening Tests (Example 4); type: cell-based; conditions: Corynebacterium ammoniagenes, nutrient agar, 37° C, read-out: Minimum Inhibitory Concentration
Description: as §1, §2

Chlorella pyrenoidosa = assay: In Vitro Agar Screening Tests (Example 4); type: cell-based; conditions: Auxenochlorella pyrenoidosa, modified Jack Meyers agar, room temperature, artificial light, read-out: Minimum Inhibitory Concentration
Description: as §1, §2

Enterobacter aerogenes = assay: In Vitro Agar Screening Tests (Example 4); type: cell-based; conditions: Klebsiella aerogenes, nutrient agar, 37° C, read-out: Minimum Inhibitory Concentration
Description: as §1, §2

Escherichia coli = assay: In Vitro Agar Screening Tests (Example 4); type: cell-based; conditions: nutrient agar, 37° C, read-out: Minimum Inhibitory Concentration
Description: as §1, §2

Euglena gracilis = assay: In Vitro Agar Screening Tests (Example 4); type: cell-based; conditions: modified Jack Meyers agar, room temperature, artificial light, read-out: Minimum Inhibitory Concentration
Description: as §1, §2

Pencillium expansum = assay: In Vitro Agar Screening Tests (Example 4); type: cell-based; conditions: potato dextrose agar, 30° C, partial control at this concentration, read-out: Minimum Inhibitory Concentration
Description: as §1, §2

Pencillium ochra-chloron = assay: In Vitro Agar Screening Tests (Example 4); type: cell-based; conditions: potato dextrose agar, 30° C, partial control at this concentration, read-out: Minimum Inhibitory Concentration
Description: as §1, §2

Pencillium vermiculatum = assay: In Vitro Agar Screening Tests (Example 4); type: cell-based; conditions: potato dextrose agar, 30° C, read-out: Minimum Inhibitory Concentration
Description: as §1, §2

Penicillium italicum = assay: In Vitro Agar Screening Tests (Example 4); type: cell-based; conditions: potato dextrose agar, 30° C, read-out: Minimum Inhibitory Concentration
Description: as §1, §2

Pseudomonas aeruginosa = assay: In Vitro Agar Screening Tests (Example 4); type: cell-based; conditions: nutrient agar, 37° C, read-out: Minimum Inhibitory Concentration
Description: as §1, §2

Pseudomonas fluorescens = assay: In Vitro Agar Screening Tests (Example 4); type: cell-based; conditions: nutrient agar, 37° C, read-out: Minimum Inhibitory Concentration
Description: as §1, §2

Rhizopus stolonifer = assay: In Vitro Agar Screening Tests (Example 4); type: cell-based; conditions: potato dextrose agar, 30° C, partial control at this concentration, read-out: Minimum Inhibitory Concentration
Description: as §1, §2

Scenedesmus obliquus = assay: In Vitro Agar Screening Tests (Example 4); type: cell-based; conditions: Tetradesmus obliquus, modified Jack Meyers agar, room temperature, artificial light, read-out: Minimum Inhibitory Concentration
Description: as §1, §2

Staphylococcus aureus [2] = assay: In Vitro Agar Screening Tests (Example 4); type: cell-based; conditions: nutrient agar, 37° C, read-out: Minimum Inhibitory Concentration
Description: as §1, §2

Trichoderma sp. = assay: In Vitro Agar Screening Tests (Example 4); type: cell-based; conditions: potato dextrose agar, 30° C, partial control at this concentration, read-out: Minimum Inhibitory Concentration
Description: as §1, §2

[3] = tested on: Trichophyton mentagrophytes; assay: In Vitro Agar Screening Tests (Example 4); type: cell-based; conditions: Emmons agar, 30° C, partial control at this concentration, read-out: Minimum Inhibitory Concentration
Description: as §1, §2

[4] = tested on: Desulfovibrio desulfuricans; assay: Sulfate Reducing Bacteria In Vitro Test; type: cell-based; conditions: Sulfate API broth with tryptone, anaerobic, room temperature, 3 to 5 days, read-out: minimum inhibitory concentration necessary to control the organism
Description: This test measures the bactericidal properties of a compound when in contact with a sulfate reducing bacteria, specifically Desulfovibrio desulfuricans. The test is conducted by dissolving the test compound in acetone to give an 0.5% solution. This toxicant is added to vials containing sterile Sulfate API broth with tryptone under anaerobic conditions at such levels to give final toxicant concentrations of 1, 5, 10 and 50 ug/ml. of solution. An inoculant solution of 0.5 ml. of the growing organism, Desulfovibrio desulfuricans, is added to the vials followed by sufficient sterile distilled water to give a total of 10 ml. of solution in the vials. The vials are incubated at room temperature for 3 to 5 days until untreated controls show growth of the organism as indicated by the black color development in the vials. The following is a summary of the minimum inhibitory concentration necessary to control the organism.

Staphylococcus aureus [5] = assay: Staphylococcus Aureus Use Dilution Test; type: cell-based; conditions: Tryptic Soy Broth, 24 hours, 37° C, read-out: Minimum Inhibitory Concentration
Description: This test measures the bacteriostatic effectiveness of a particular test compound against Staphylococcus aureus. Tryptic Soy Broth is dispensed aseptically into sterile 13 × 100 mm. clear glass culture tubes. The first tube receives 3.6 ml. of medium and tubes 2 through 10 receive 2.0 ml. of medium. The test compound is dissolved in acetone to give 10 ml. of a solution of 0.10% of the test compound. Using a sterile syringe, 0.4 ml. of the test compound solution is placed in the first tube containing the 3.6 ml. of sterile broth and mixed thoroughly. This operation is continued through to the tenth tube. From the tenth tube, 2.0 ml. of solution is removed and discarded. Each tube is then innoculated with 0.1 ml. of a 24 hour culture of Staphylococcus aureus in Tryptic Soy Broth, and the mixture is mixed thoroughly using a Vortex mixer. A control is also set up to be sure that the inoculum is viable using a tube of sterile broth containing no added toxicant. The tubes are incubated for 24 hours at 37° C. The tubes are then examined to determine growth of the organism in the culture tubes. The minimum concentration in which no growth of the organism occurs is recorded. The following table gives the minimum inhibitory concentration necessary to control the organism: […]

[6] = tested on: Two-spotted Mite (2-SM) Tetranychus urticae (Koch); assay: Plant Dip Assay on Two-Spotted Mite, 2-SM PE; type: in vivo; conditions: infested Pinto Bean plants dipped 2-3 seconds, mortality after seven days, adult mites
Excerpt: The Two-spotted Mite (2-SM) Tetranychus urticae (Koch) is subjected to evaluation tests for miticidal activity. Plant Dip Assay on Two-Spotted Mite [Tetranychus urticae (Koch)] Pinto Bean plants (Phaseolus sp.) approximately 10 cm tall, are transplanted into sandy loam soil in 3 inch clay pots and thoroughly infested with two-spotted mites of mixed ages and sexes. Twenty-four hours later the infested plants are inverted and dipped for 2-3 seconds in 50-50 acetone-water solutions of the test chemicals. Treated plants are held in the greenhouse, and seven days later mortality is determined for both the adult mites and the nymphs hatching from eggs which were on the plants at the time of treatment. Test concentrations range from 0.05% down to that at which 50% mortality occurs. The values obtained in this test are found in Table VII under the Columns 2SM-PE and 2SM-Eggs.

MIC (Aspergillus fumigatus): 5 µg/mL (≈ 21.1 µM)
MIC (Aspergillus niger): 1 µg/mL (≈ 4.21 µM)
MIC (Aspergillus oryzae): 1 µg/mL (≈ 4.21 µM)
MIC (Bacillus cereus): > 50 µg/mL
MIC [1]: > 50 µg/mL
MIC (Chlorella pyrenoidosa): 1 µg/mL (≈ 4.21 µM)
MIC (Enterobacter aerogenes): > 50 µg/mL
MIC (Escherichia coli): 25 µg/mL (≈ 105 µM)
MIC (Euglena gracilis): 1 µg/mL (≈ 4.21 µM)
MIC (Pencillium expansum): 5 µg/mL (≈ 21.1 µM)
MIC (Pencillium ochra-chloron): 10 µg/mL (≈ 42.1 µM)
MIC (Pencillium vermiculatum): 10 µg/mL (≈ 42.1 µM)
MIC (Penicillium italicum): 1 µg/mL (≈ 4.21 µM)
MIC (Pseudomonas aeruginosa): 50 µg/mL (≈ 211 µM)
MIC (Pseudomonas fluorescens): 50 µg/mL (≈ 211 µM)
MIC (Rhizopus stolonifer): 1 µg/mL (≈ 4.21 µM)
MIC (Scenedesmus obliquus): 10 µg/mL (≈ 42.1 µM)
MIC (Staphylococcus aureus [2]): 5 µg/mL (≈ 21.1 µM)
MIC (Trichoderma sp.): 10 µg/mL (≈ 42.1 µM)
MIC [3]: 10 µg/mL (≈ 42.1 µM)
MIC [4]: 10 µg/mL (≈ 42.1 µM)
MIC (Staphylococcus aureus [5]): 50 µg/mL (≈ 211 µM)
Structure (SMILES): CCOCCOC(=S)SCSC#N [Compound 1]
IC50 (Phoma herbarum): 5 µg/mL (≈ 21.1 µM)
2-SM PE: concentration at which 50% mortality occurs [6]: .03%

Reference: patent US4078079A, “Thiocyano-xanthate miticides” (Stauffer Chemical Company, priority 1976, dated 1978)
